Laboratory results published in the supplement of paper PMC10307832.

Tests used:
Assay in all cases: relative viability (nuclei count vs DMSO), 5 days (fraction); higher = more cells survive
Adavosertib + Bortezomib = compound: C=CCn1c(=O)c2cnc(Nc3ccc(N4CCN(C)CC4)cc3)nc2n1-c1cccc(C(C)(C)O)n1 [Adavosertib] + CC(C)C[C@H](NC(=O)[C@H](Cc1ccccc1)NC(=O)c1cnccn1)B(O)O [Bortezomib] (partner 0.002 µM)
Procedure, shortened: (§1)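 Lung cancer cell lines were seeded in 1536-well plates and dosed by pin tool the next day, with either a single drug or a fixed anchor-drug dose combined with five library-drug doses (not always all listed) spaced in √10 steps. Five days later, one step fixed the cells and stained their nuclei (final 0.05% Triton X-100, 1% formaldehyde, 1 ug/ml Hoechst), and nuclei were counted on 4× images. Relative viability is the nuclei count in treated wells divided by the count in vehicle wells, and each value is the median of duplicate plates.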

Adavosertib + Dasatinib = compound: C=CCn1c(=O)c2cnc(Nc3ccc(N4CCN(C)CC4)cc3)nc2n1-c1cccc(C(C)(C)O)n1 [Adavosertib] + Cc1nc(Nc2ncc(C(=O)Nc3c(C)cccc3Cl)s2)cc(N2CCN(CCO)CC2)n1 [Dasatinib] (partner 0.075 µM)
Procedure, shortened: as §1

Nelarabine + Trametinib = compound: COc1nc(N)nc2c1ncn2[C@@H]1O[C@H](CO)[C@@H](O)[C@@H]1O [Nelarabine] + CC(=O)Nc1cccc(-n2c(=O)n(C3CC3)c(=O)c3c(Nc4ccc(I)cc4F)n(C)c(=O)c(C)c32)c1 [Trametinib] (partner 0.02 µM)
Procedure, shortened: as §1

Nelarabine + Foretinib = compound: COc1nc(N)nc2c1ncn2[C@@H]1O[C@H](CO)[C@@H](O)[C@@H]1O [Nelarabine] + COc1cc2c(Oc3ccc(NC(=O)C4(C(=O)Nc5ccc(F)cc5)CC4)cc3F)ccnc2cc1OCCCN1CCOCC1 [Foretinib] (partner 0.25 µM)
Procedure, shortened: as §1

Cell Line | relative viability (Adavosertib + Bortezomib; first compound 0.01 µM) | relative viability (Adavosertib + Bortezomib; first compound 0.03162 µM) | relative viability (Adavosertib + Bortezomib; first compound 0.1 µM) | relative viability (Adavosertib + Bortezomib; first compound 0.3162 µM) | relative viability (Adavosertib + Dasatinib; first compound 0.01 µM) | relative viability (Adavosertib + Dasatinib; first compound 0.03162 µM) | relative viability (Adavosertib + Dasatinib; first compound 0.1 µM) | relative viability (Adavosertib + Dasatinib; first compound 0.3162 µM) | relative viability (Nelarabine + Trametinib; first compound 0.01 µM) | relative viability (Nelarabine + Trametinib; first compound 0.03162 µM) | relative viability (Nelarabine + Trametinib; first compound 0.1 µM) | relative viability (Nelarabine + Trametinib; first compound 0.3162 µM) | relative viability (Nelarabine + Trametinib; first compound 1 µM) | relative viability (Nelarabine + Foretinib; first compound 0.01 µM) | relative viability (Nelarabine + Foretinib; first compound 0.03162 µM) | relative viability (Nelarabine + Foretinib; first compound 0.1 µM) | relative viability (Nelarabine + Foretinib; first compound 0.3162 µM) | relative viability (Nelarabine + Foretinib; first compound 1 µM)
BEN | 0.807 | 0.986 | 0.811 | 0.851 | 0.294 | 0.295 | 0.297 | 0.302 | 1.17 | 0.91 | 1.01 | 1.05 | 1.31 | 0.583 | 0.744 | 0.655 | 0.638 | 0.556
RERF-LC-KJ | 1.14 | 1.02 | 1.19 | 1.28 | 0.799 | 0.774 | 0.975 | 0.715 | 1.03 | 1 | 0.934 | 0.986 | 0.862 | 1.1 | 1.07 | 0.923 | 0.858 | 0.938
LU99A | 1.34 | 0.998 | 1.09 | 0.827 | 0.472 | 0.51 | 0.532 | 0.355 | 0.548 | 0.552 | 0.554 | 0.561 | 0.599 | 0.934 | 0.683 | 0.706 | 0.801 | 0.889
PC-14 | 1.05 | 0.873 | 0.926 | 0.334 | 0.281 | 0.236 | 0.23 | 0.057 | 0.894 | 0.87 | 0.766 | 0.844 | 0.774 | 1.04 | 1.11 | 1.06 | 1.02 | 0.997
NCI-H650 | 0.597 | 0.795 | 1.07 | 0.663 | 0.37 | 0.494 | 0.5 | 0.465 | 1.05 | 0.805 | 0.922 | 1.01 | 1.06 | 1.09 | 1.04 | 0.968 | 0.886 | 1.13
NCI-H1651 | 0.902 | 0.963 | 1 | 0.935 | 0.479 | 0.409 | 0.396 | 0.282 | 0.948 | 0.909 | 0.842 | 0.827 | 0.821 | 1.12 | 0.782 | 0.948 | 0.718 | 0.912
NCI-H2023 | 0.94 | 0.937 | 0.682 | 0.437 | 0.584 | 0.583 | 0.471 | 0.226 | 0.721 | 0.61 | 0.46 | 0.632 | 0.505 | 0.942 | 0.737 | 0.876 | 0.899 | 0.818
NCI-H2087 | 0.883 | 0.894 | 1.05 | 0.918 | 0.901 | 0.786 | 0.893 | 0.845 | 0.181 | 0.167 | 0.196 | 0.245 | 0.202 | 1.43 | 0.917 | 1.06 | 1.01 | 1.11
EKVX | 0.992 | 1.14 | 0.996 | 1.27 | 0.534 | 0.602 | 0.538 | 0.52 | 0.402 | 0.306 | 0.587 | 0.282 | 0.472 | 0.966 | 0.803 | 0.732 | 0.614 | 0.777
NCI-H1975 | 0.356 | 0.353 | 0.399 | 0.324 | 0.383 | 0.3 | 0.268 | 0.232 | 0.355 | 0.35 | 0.36 | 0.396 | 0.381 | 1.01 | 0.892 | 1.14 | 0.986 | 1.07
NCI-H520 | 0.708 | 0.803 | 0.553 | 0.535 | 0.194 | 0.181 | 0.183 | 0.217 | 0.817 | 0.599 | 0.757 | 0.903 | 0.697 | 1.06 | 0.799 | 0.95 | 0.789 | 0.676
NCI-H647 | 1.01 | 0.748 | 1.11 | 0.642 | 0.2 | 0.21 | 0.259 | 0.107 | 0.584 | 0.423 | 0.537 | 0.548 | 0.502 | 1.22 | 1.02 | 1.26 | 1.26 | 1.37
NCI-H1755 | 0.965 | 0.905 | 1.01 | 1.03 | 0.406 | 0.424 | 0.447 | 0.384 | 0.852 | 0.777 | 0.753 | 0.692 | 0.836 | 0.939 | 0.82 | 0.928 | 1.05 | 1.01
SK-LU-1 | 1.07 | 1.29 | 1.16 | 0.479 | 0.249 | 0.158 | 0.148 | 0.136 | 0.523 | 0.42 | 0.421 | 0.558 | 0.514 | 1.03 | 0.584 | 0.951 | 0.896 | 1.03
LXF-289 | 0.959 | 0.948 | 0.999 | 0.999 | 0.309 | 0.22 | 0.213 | 0.243 | 0.714 | 0.74 | 0.673 | 0.667 | 0.73 | 1.07 | 0.922 | 0.988 | 1.07 | 0.969
NCI-H1993 | 0.94 | 0.962 | 1.09 | 1.11 | 0.63 | 0.503 | 0.719 | 0.618 | 0.531 | 0.48 | 0.479 | 0.487 | 0.588 | 0.845 | 0.712 | 0.737 | 0.831 | 0.708
LCLC-97TM1 | 0.284 | 0.635 | 0.577 | 0.233 | 0.881 | 0.675 | 0.886 | 0.801 | – | – | 0.189 | 0.203 | 0.224 | 0.996 | 0.792 | 1.01 | 0.922 | 0.935
NCI-H2347 | 0.763 | 0.911 | 0.875 | 0.763 | 0.378 | 0.304 | 0.267 | 0.258 | 0.338 | 0.3 | 0.307 | 0.304 | 0.27 | 0.838 | – | 0.528 | 0.65 | 0.89
